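Results reflect a 48-hour exposure of cells in 96-well plates to compound at five concentrations. TGI: total growth inhibition.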
Assays:
Experiment in all cases: NCI tumour cell line growth inhibition, 48 h
786-0 renal = tested on: 786-0 renal
ACHN renal = tested on: ACHN renal
CCRF-CEM leukemia = tested on: CCRF-CEM leukemia
COLO 205 colon = tested on: COLO 205 colon
DMS 114 small cell lung = tested on: DMS 114 small cell lung
DMS 273 small cell lung = tested on: DMS 273 small cell lung
EKVX NSCLC = tested on: EKVX NSCLC
HCC-2998 colon = tested on: HCC-2998 colon
HCT-116 colon = tested on: HCT-116 colon
HCT-15 colon = tested on: HCT-15 colon
HL-60(TB) leukemia = tested on: HL-60(TB) leukemia
HOP-18 NSCLC = tested on: HOP-18 NSCLC
HOP-62 NSCLC = tested on: HOP-62 NSCLC
HOP-92 NSCLC = tested on: HOP-92 NSCLC
HT29 colon = tested on: HT29 colon
IGROV1 ovarian = tested on: IGROV1 ovarian
K-562 leukemia = tested on: K-562 leukemia
KM12 colon = tested on: KM12 colon
KM20L2 colon = tested on: KM20L2 colon
LOX IMVI melanoma = tested on: LOX IMVI melanoma
LXFL 529 NSCLC = tested on: LXFL 529 NSCLC
M14 melanoma = tested on: M14 melanoma
M19-MEL melanoma = tested on: M19-MEL melanoma
MALME-3M melanoma = tested on: MALME-3M melanoma
MOLT-4 leukemia = tested on: MOLT-4 leukemia
NCI-H226 lung = tested on: NCI-H226 lung
NCI-H23 lung = tested on: NCI-H23 lung
NCI-H460 lung = tested on: NCI-H460 lung
NCI-H522 lung = tested on: NCI-H522 lung
OVCAR-3 ovarian = tested on: OVCAR-3 ovarian
OVCAR-5 ovarian = tested on: OVCAR-5 ovarian
OVCAR-8 ovarian = tested on: OVCAR-8 ovarian
RPMI-8226 leukemia = tested on: RPMI-8226 leukemia
RXF 393 renal = tested on: RXF 393 renal
RXF-631 renal = tested on: RXF-631 renal
SF-268 CNS = tested on: SF-268 CNS
SF-295 CNS = tested on: SF-295 CNS
SF-539 CNS = tested on: SF-539 CNS
SK-MEL-2 melanoma = tested on: SK-MEL-2 melanoma
SK-MEL-28 melanoma = tested on: SK-MEL-28 melanoma
SK-MEL-5 melanoma = tested on: SK-MEL-5 melanoma
SK-OV-3 ovarian = tested on: SK-OV-3 ovarian
SN12C renal = tested on: SN12C renal
SNB-19 CNS = tested on: SNB-19 CNS
SNB-75 CNS = tested on: SNB-75 CNS
SNB-78 CNS = tested on: SNB-78 CNS
SR leukemia = tested on: SR leukemia
SW-620 colon = tested on: SW-620 colon
TK-10 renal = tested on: TK-10 renal
U251 CNS = tested on: U251 CNS
UACC-257 melanoma = tested on: UACC-257 melanoma
UACC-62 melanoma = tested on: UACC-62 melanoma
UO-31 renal = tested on: UO-31 renal
XF 498 CNS = tested on: XF 498 CNS
A498 renal = tested on: A498 renal
A549 NSCLC = tested on: A549 NSCLC
CAKI-1 renal = tested on: CAKI-1 renal
DLD-1 colon = tested on: DLD-1 colon
OVCAR-4 ovarian = tested on: OVCAR-4 ovarian

SMILES: COc1cc2c(cc1OC)C(C#N)(Cc1ccccc1)N(C(=O)c1ccccc1)C=C2 (configuration not stated)
- TGI (786-0 renal): > 100 µM
- TGI (ACHN renal): > 100 µM
- TGI (CCRF-CEM leukemia): > 100 µM
- TGI (COLO 205 colon): > 100 µM
- TGI (DMS 114 small cell lung): 53.2 µM
- TGI (DMS 273 small cell lung): > 100 µM
- TGI (EKVX NSCLC): > 100 µM
- TGI (HCC-2998 colon): > 100 µM
- TGI (HCT-116 colon): > 100 µM
- TGI (HCT-15 colon): > 100 µM
- TGI (HL-60(TB) leukemia): > 100 µM
- TGI (HOP-18 NSCLC): > 100 µM
- TGI (HOP-62 NSCLC): > 100 µM
- TGI (HOP-92 NSCLC): > 100 µM
- TGI (HT29 colon): > 100 µM
- TGI (IGROV1 ovarian): > 100 µM
- TGI (K-562 leukemia): > 100 µM
- TGI (KM12 colon): > 100 µM
- TGI (KM20L2 colon): > 100 µM
- TGI (LOX IMVI melanoma): > 100 µM
- TGI (LXFL 529 NSCLC): > 100 µM
- TGI (M14 melanoma): > 100 µM
- TGI (M19-MEL melanoma): > 100 µM
- TGI (MALME-3M melanoma): > 100 µM
- TGI (MOLT-4 leukemia): > 100 µM
- TGI (NCI-H226 lung): > 100 µM
- TGI (NCI-H23 lung): > 100 µM
- TGI (NCI-H460 lung): > 100 µM
- TGI (NCI-H522 lung): > 100 µM
- TGI (OVCAR-3 ovarian): > 100 µM
- TGI (OVCAR-5 ovarian): > 100 µM
- TGI (OVCAR-8 ovarian): > 100 µM
- TGI (RPMI-8226 leukemia): > 100 µM
- TGI (RXF 393 renal): 76.1 µM
- TGI (RXF-631 renal): > 100 µM
- TGI (SF-268 CNS): > 100 µM
- TGI (SF-295 CNS): > 100 µM
- TGI (SF-539 CNS): > 100 µM
- TGI (SK-MEL-2 melanoma): > 100 µM
- TGI (SK-MEL-28 melanoma): > 100 µM
- TGI (SK-MEL-5 melanoma): 62.9 µM
- TGI (SK-OV-3 ovarian): > 100 µM
- TGI (SN12C renal): > 100 µM
- TGI (SNB-19 CNS): > 100 µM
- TGI (SNB-75 CNS): > 100 µM
- TGI (SNB-78 CNS): > 100 µM
- TGI (SR leukemia): > 100 µM
- TGI (SW-620 colon): > 100 µM
- TGI (TK-10 renal): > 100 µM
- TGI (U251 CNS): > 100 µM
- TGI (UACC-257 melanoma): > 100 µM
- TGI (UACC-62 melanoma): > 100 µM
- TGI (UO-31 renal): > 100 µM
- TGI (XF 498 CNS): 87 µM

SMILES: C=C1CCC(OC(C)=O)C2(C)C(OC(C)=O)CC3OC3(C)C2C(OC(C)=O)C2C(C)C(=O)OC2C1Cl (configuration not stated)
- TGI (786-0 renal): > 100 µM
- TGI (A498 renal): > 100 µM
- TGI (A549 NSCLC): > 100 µM
- TGI (ACHN renal): > 100 µM
- TGI (CAKI-1 renal): > 100 µM
- TGI (CCRF-CEM leukemia): > 100 µM
- TGI (COLO 205 colon): > 100 µM
- TGI (DLD-1 colon): > 100 µM
- TGI (DMS 114 small cell lung): > 100 µM
- TGI (DMS 273 small cell lung): > 100 µM
- TGI (EKVX NSCLC): > 100 µM
- TGI (HCC-2998 colon): > 100 µM
- TGI (HCT-116 colon): > 100 µM
- TGI (HCT-15 colon): > 100 µM
- TGI (HL-60(TB) leukemia): > 100 µM
- TGI (HOP-18 NSCLC): > 100 µM
- TGI (HOP-62 NSCLC): > 100 µM
- TGI (HOP-92 NSCLC): > 100 µM
- TGI (HT29 colon): > 100 µM
- TGI (IGROV1 ovarian): > 100 µM
- TGI (K-562 leukemia): > 100 µM
- TGI (KM12 colon): > 100 µM
- TGI (KM20L2 colon): > 100 µM
- TGI (LOX IMVI melanoma): > 100 µM
- TGI (LXFL 529 NSCLC): > 100 µM
- TGI (M14 melanoma): > 100 µM
- TGI (M19-MEL melanoma): > 100 µM
- TGI (MALME-3M melanoma): > 100 µM
- TGI (MOLT-4 leukemia): > 100 µM
- TGI (NCI-H226 lung): > 100 µM
- TGI (NCI-H23 lung): > 100 µM
- TGI (NCI-H460 lung): > 100 µM
- TGI (OVCAR-3 ovarian): > 100 µM
- TGI (OVCAR-4 ovarian): > 100 µM
- TGI (OVCAR-5 ovarian): > 100 µM
- TGI (OVCAR-8 ovarian): > 100 µM
- TGI (RPMI-8226 leukemia): > 100 µM
- TGI (RXF 393 renal): > 100 µM
- TGI (RXF-631 renal): > 100 µM
- TGI (SF-268 CNS): > 100 µM
- TGI (SF-295 CNS): > 100 µM
- TGI (SF-539 CNS): > 100 µM
- TGI (SK-MEL-2 melanoma): > 100 µM
- TGI (SK-MEL-28 melanoma): > 100 µM
- TGI (SK-MEL-5 melanoma): > 100 µM
- TGI (SK-OV-3 ovarian): > 100 µM
- TGI (SN12C renal): > 100 µM
- TGI (SNB-19 CNS): > 100 µM
- TGI (SNB-75 CNS): > 100 µM
- TGI (SNB-78 CNS): > 100 µM
- TGI (SR leukemia): > 100 µM
- TGI (SW-620 colon): > 100 µM
- TGI (TK-10 renal): > 100 µM
- TGI (U251 CNS): > 100 µM
- TGI (UACC-257 melanoma): > 100 µM
- TGI (UACC-62 melanoma): > 100 µM
- TGI (UO-31 renal): > 100 µM
- TGI (XF 498 CNS): > 100 µM
